Laboratory results taken from patent US12202805B2, “Process for preparing (5S)-{[2-(4-carboxyphenyl)ethyl] |2-(2-{|3-chloro-4'-(trifluoromethyl)biphenyl-4-yl]methoxy}phenyl)ethyl]aminol-5,6,7,8-tetrahydroquinoline-2-carboxylic acid and its crystalline forms for use as pharmaceutically active compound” (Bayer Aktiengesellschaft, priority 2021, dated 2025).
Values joined by “and” are separate entries in the source; they are usually repeats but may differ in a detail not shown here. Equal entries are not always repeated.

System: thromboxane A2 challenged PAH-minipig
Assay: Haemodynamics in the anesthetized thromboxane challenged minipig, intratracheal dry powder (PAP, BP)
Assay type: in vivo, Göttingen Minipigs
Procedure: Healthy Göttingen Minipigs® Ellegaard (Ellegaard, Denmark) of both sexes and having a weight of 2-6 kg were used. The animals were sedated by i.m. administration of about 25 mg/kg ketamine and about 10 mg/kg azaperone. Anaesthesia was initiated by i.v. administration of about 2 mg/kg ketamine and about 0.3 mg/kg midazolam. Maintenance of anaesthesia was by i.v. administration of about 7.5-30 mg/kg/h ketamine and about 1-4 mg/kg/h midazolam (rate of infusion 1-4 ml/kg/h) and about 150 μg/kg/h pancuronium bromide (for example Pancuronium-Actavis). After intubation, the animals were ventilated by the ventilator at a constant respiratory volume (10-12 ml/kg, 35 breaths/min; Avea®, Viasys Healthcare, USA, or Engström Carestation, GE Healthcare, Freiburg, Germany) such that an end-tidal CO2 concentration of about 5% was achieved. Ventilation was performed with room air, enriched with about 40% oxygen (normoxia). For the measurement of the haemodynamic parameters such as pulmonary arterial pressure (PAP), blood pressure (BP) and heart rate (HR), catheters were inserted into the carotid artery to measure the blood pressure, and a Swan-Ganz® catheter was introduced in a flow-directed manner via the jugular vein into the pulmonary artery. The haemodynamic signals were recorded and evaluated by means of pressure transducers (Combitransducer, B. Braun, Melsungen, Germany)/amplifiers and Ponemah® as data acquisition software.
As reference pure Lactose vehicle was applied in the beginning of each experiment.

## O.O=C(O)c1ccc(CCN(CCc2ccccc2OCc2ccc(-c3ccc(C(F)(F)F)cc3)cc2Cl)[C@H]2CCCc3nc(C(=O)O)ccc32)cc1.O=C(O)c1ccc(CCN(CCc2ccccc2OCc2ccc(-c3ccc(C(F)(F)F)cc3)cc2Cl)[C@H]2CCCc3nc(C(=O)O)ccc32)cc1 [example 6a, (5S)—{[2-(4-Carboxyphenyl)ethyl][2-(2-{[3-chloro-4′-(trifluoromethyl)biphenyl-4-yl]methoxy}phenyl)-ethyl]amino}-5,6,7,8-tetrahydroquinoline-2-carboxylic acid semihydrate]
375 μg/kg i.t., within the last hour of the observation interval
  systemic blood pressure: slightly affected
Micronized hydrates, 1.5 mg/4 kg (=375 μg/kg) i.t.
  efficacy with regard to PAP reduction as well as systemic BP reduction: comparable efficacy
Time 0 min, 375 μg/kg i.t.
  BP (mean): 101 mmHg and 85 mmHg
  PAP(mean): 39.6 mmHg and 40.8 mmHg and 38.5 mmHg
Time 10 min, 375 μg/kg i.t.
  BP (mean): 103 mmHg and 83 mmHg and 79 mmHg
  PAP(mean): 40.2 mmHg and 41.1 mmHg
Time 20 min, 375 μg/kg i.t.
  BP (mean): 101 mmHg and 83 mmHg and 84 mmHg
  PAP(mean): 40.4 mmHg and 41.3 mmHg
Time 30 min, 375 μg/kg i.t.
  BP (mean): 100 mmHg and 81 mmHg and 88 mmHg
  PAP(mean): 40.2 mmHg and 41.3 mmHg
Time 40 min, 375 μg/kg i.t.
  BP (mean): 98 mmHg and 81 mmHg and 90 mmHg
  PAP(mean): 40.4 mmHg and 41.8 mmHg and 41.0 mmHg
Time 50 min, 375 μg/kg i.t.
  BP (mean): 99 mmHg and 78 mmHg and 89 mmHg
  PAP(mean): 40.7 mmHg and 41.7 mmHg and 40.9 mmHg
Time 60 min, 375 μg/kg i.t.
  BP (mean): 100 mmHg and 79 mmHg and 86 mmHg
  BP, % changes vs. prevalues: 100.6% and 99.7% and 97.2%
  PAP(mean): 41.2 mmHg and 42.0 mmHg and 40.9 mmHg
  PAP, % changes vs. prevalues: 100.7% and 99.4% and 99.2%
Time 70 min, 375 μg/kg i.t.
  BP (mean): 102 mmHg and 78 mmHg and 87 mmHg
  BP, % changes vs. prevalues: 102.6% and 98.4%
  PAP(mean): 38.8 mmHg and 40.6 mmHg and 40.1 mmHg
  PAP, % changes vs. prevalues: 94.7% and 96.1% and 97.0%
Time 80 min, 375 μg/kg i.t.
  BP (mean): 102 mmHg and 79 mmHg and 90 mmHg
  BP, % changes vs. prevalues: 102.6% and 99.7% and 101.8%
  PAP(mean): 34.1 mmHg and 39.9 mmHg and 37.7 mmHg
  PAP, % changes vs. prevalues: 83.4% and 94.5% and 91.2%
Time 90 min, 375 μg/kg i.t.
  BP (mean): 101 mmHg and 81 mmHg and 92 mmHg
  BP, % changes vs. prevalues: 101.6% and 102.2% and 104.0%
  PAP(mean): 30.1 mmHg and 37.7 mmHg and 36.6 mmHg
  PAP, % changes vs. prevalues: 73.4% and 89.2% and 88.7%
Time 100 min, 375 μg/kg i.t.
  BP (mean): 100 mmHg and 80 mmHg and 95 mmHg
  BP, % changes vs. prevalues: 100.6% and 101.0% and 107.4%
  PAP(mean): 28.3 mmHg and 35.9 mmHg and 35.0 mmHg
  PAP, % changes vs. prevalues: 69.0% and 85.0% and 84.7%
Time 110 min, 375 μg/kg i.t.
  BP (mean): 99 mmHg and 79 mmHg
  BP, % changes vs. prevalues: 99.6% and 99.7% and 111.9%
  PAP(mean): 27.2 mmHg and 34.8 mmHg and 34.0 mmHg
  PAP, % changes vs. prevalues: 66.5% and 82.4% and 82.1%
Time 120 min, 375 μg/kg i.t.
  BP (mean): 99 mmHg and 79 mmHg and 96 mmHg
  BP, % changes vs. prevalues: 99.6% and 99.7% and 108.6%
  PAP(mean): 26.4 mmHg and 34.1 mmHg and 32.9 mmHg
  PAP, % changes vs. prevalues: 64.4% and 80.8% and 79.7%
Time 130 min, 375 μg/kg i.t.
  BP (mean): 98 mmHg and 81 mmHg and 97 mmHg
  BP, % changes vs. prevalues: 98.6% and 102.2% and 109.7%
  PAP(mean): 25.7 mmHg and 33.7 mmHg and 31.7 mmHg
  PAP, % changes vs. prevalues: 62.8% and 79.9% and 76.7%
Time 140 min, 375 μg/kg i.t.
  BP (mean): 99 mmHg and 82 mmHg and 98 mmHg
  BP, % changes vs. prevalues: 99.6% and 103.5% and 110.8%
  PAP(mean): 25.3 mmHg and 33.2 mmHg and 31.3 mmHg
  PAP, % changes vs. prevalues: 61.8% and 78.7% and 75.7%
Time 150 min, 375 μg/kg i.t.
  BP (mean): 97 mmHg and 82 mmHg
  BP, % changes vs. prevalues: 97.6% and 103.5% and 109.7%
  PAP(mean): 25.0 mmHg and 32.9 mmHg and 30.7 mmHg
  PAP, % changes vs. prevalues: 60.9% and 78.0% and 74.3%
Time 160 min, 375 μg/kg i.t.
  BP (mean): 96 mmHg and 81 mmHg and 97 mmHg
  BP, % changes vs. prevalues: 96.6% and 102.2% and 109.7%
  PAP(mean): 24.5 mmHg and 32.5 mmHg and 30.2 mmHg
